Measurements: patent US4277472A, “3,6-Disubstituted-5,7-(lower alkano)-5,6,7,8-tetrahydropyrido(4,3-C)pyridazines; their intermediates, preparation, antihypertensive use and compositions” (Byk Gulden Lomberg Chemische Fabrik GmbH, priority 1978, dated 1981)

Legend:
[1] = tested on: blood pressure of genetically-hypertensive rats; assay: antihypertensive effect in awake genetically-hypertensive rats, oral, once daily on two consecutive days; assay type: in vivo, rat (Kyoto strain); conditions: for relation between percentage change of the blood pressure (BP) and the applied dose / Th. E. (therapeutic effectiveness) [Serial No. 3 = 1.0]: 24-hour value of the 2nd day; for relation between percentage change of the blood pressure (BP) and the applied dose: dose in μmole/kg; for Th. E. (therapeutic effectiveness) [Serial No. 3 = 1.0]: relative to hydralazine = 1.0
Method: In order to determine the anti-hypertensive effect, the compounds or mixtures are administered once daily by means of an oesophageal sound in the stated doses on two consecutive days to, in each case, 8 rats (Kyoto strain) with genetically-caused hypertension. The blood pressure was measured in each case 6 and 24 hours after administration of the substance.
(§1) The measurement of the systolic blood pressure is effected with the aid of an inflatable cuff which is placed around the tail root and on which cuff there are arranged distally annularly 3 piezo-electric crystals (at a distance of 120°) for registering the pulse waves. The determination of the blood pressure is effected through inflation of the cuff and graphic recording of the pulse amplitude [analogously to H. Friebel and E. Vreden, Arch. exper. Path. u. Pharmakol., 232, 419 (1958)]. The animals were kept in an ambience of, and the experiments were carried out at from 22° to 24° C. and from 50 to 60 percent atmospheric humidity. In order to accustom the animals to the measuring process, a measurement was effected on the animals in each case 2 to 3 times daily for three days. For this purpose, as in the subsequent experiments, the rats were put into tunnel-shaped wire cages; one narrow side of the cages is slidable, the other has an opening for taking the tail through. In order to ensure a better blood flow through the tail artery during the measurement, the tails are irradiated for from 5 to 10 minutes with a red light lamp (150 watts) (distance: animal-lamp=50 cm). The air temperature immediately ambient to the tail is from 30° to 33° C. The body of the animals is covered and thus protected from direct irradiation.
(§2) Table I reproduces for the representatives of the compounds according to the invention the percentage lowering of the blood pressure after oral administration in the rat and the lethal effect after oral administration in the mouse.
% Change of blood pressure (BP) in genetically-hypertensive rats after
single daily application per os on two consecutive days (N = 8/dose)

[2] = acute oral toxicity, LD50, mouse; parameters: species or system mouse (NMRI, female); conditions: in vivo, per os, single administration, mice, N = 5/dose, 14 days observation
Method: The toxicity investigations were carried out on female NMRI mice (body weight from 22 to 26 g). The animals (5 animals per dose) receive food and water ad libitum. Different doses of the substances are administered orally. The duration of observation is 14 days. The LD50, i.e. the dose at which 50 percent of the animals die, is determined graphically from the dose effect curve.
as §2
and toxicity (per os; LD50) in mice (N = 5/dose)

[3] = tested on: blood pressure of genetically-hypertensive rats; assay: lowering of blood pressure of genetically-hypertensive rats, oral, once daily on 10 consecutive days; assay type: in vivo, rat (Kyoto strain); conditions: 6 h after application
Method: as §1
In Table III there is represented the lowering of the blood pressure of genetically-hypertensive rats in the case of oral application of 3-hydrazino-5,7-propano-5,6,7,8-tetrahydro-6-pyrido[4,3-c]pyridazine carboxylic acid ethyl ester fumarate. In each case 8 animals received the stated dose once daily on 10 consecutive days.
Lowering of the blood pressure of genetically-hypertensive rats
(in mm Hg) in the case of administration of different doses of No. 4
(in mg/kg rat), measured on 10 consecutive days (6 hours after
application in each case).
Doses: a = 1.25 mg/kg; b = 2.5 mg/kg; c = 5.0 mg/kg; d = 10.0 mg/kg.

[4] = 5 mg/kg per os on 2nd day (half of original dose)
[5] = 5 mg/kg per os on 2nd day (half of original dose), 24 h

CCOC(=O)N1C2CCCC1c1cc(NN)nnc1C2 (stereo not shown) [3-hydrazino-5,7-propano-5,6,7,8-tetrahydro-6-pyrido[4,3-c]pyridazine carboxylic acid ethyl ester]
anti-hypertensive effectiveness and duration of action, in words ([1]; awake genetically-hypertensive rats, compared with hydralazine and known compounds): considerably higher anti-hypertensive effectiveness and longer duration of action than hydralazine

CCOC(=O)N1CCc2nnc(NN)cc2C1 [Serial No. 1, 3-hydrazino-5,6,7,8-tetrahydro-6-pyrido[4,3-c]pyridazine carboxylic acid ethyl ester, reference compound]
BP (% change), 2nd day, 6 h [1, 4]: -17.5%
BP (% change), 1st day, 6 h ([1]; 10 mg/kg per os): -24.5%
BP (% change), 1st day, 24 h ([1]; 10 mg/kg per os, 24 h): -6.0%
relation between percentage change of the blood pressure (BP) and the applied dose [1]: 0.404
BP (% change) 2nd day, 24 h ([1]; Table II, dose 21.05 μmole/kg): -8.5%
Th. E. (therapeutic effectiveness) [Serial No. 3 = 1.0] [1]: 8.3
LD50 at 336 h [2]: 340 mg/kg

CCOC(=O)N1CCc2nnc(NN)c(C)c2C1.Cl [Serial No. 2, 3-hydrazino-4-methyl-5,6,7,8-tetrahydro-6-pyrido[4,3-c]pyridazine carboxylic acid ethyl ester hydrochloride, reference compound]
BP (% change), 1st day, 6 h ([1]; 20 mg/kg per os): -4.7%
BP (% change), 1st day, 24 h ([1]; 20 mg/kg per os, 24 h): -1.0%
BP (% change), 2nd day, 6 h ([1]; 20 mg/kg per os, 2nd day): -4.7%
BP (% change) 2nd day, 24 h ([1]; 20 mg/kg per os, 2nd day, 24 h): -3.7%
relation between percentage change of the blood pressure (BP) and the applied dose [1]: 0.046
BP (% change) 2nd day, 24 h ([1]; Table II, dose 79.6 μmole/kg): -3.7%
Th. E. (therapeutic effectiveness) [Serial No. 3 = 1.0] [1]: 0.9

NNc1nncc2ccccc12 [Serial No. 3, 1-hydrazinophthalazine, reference compound]
BP (% change), 1st day, 6 h ([1]; 20 mg/kg per os): -10.7%
BP (% change), 1st day, 24 h ([1]; 20 mg/kg per os, 24 h): -1.5%
BP (% change), 2nd day, 6 h ([1]; 20 mg/kg per os, 2nd day): -11.8%
BP (% change) 2nd day, 24 h ([1]; 20 mg/kg per os, 2nd day, 24 h): -6.1%
relation between percentage change of the blood pressure (BP) and the applied dose [1]: 0.0488
BP (% change) 2nd day, 24 h ([1]; Table II, dose 125.0 μmole/kg): -6.1%
Th. E. (therapeutic effectiveness) [Serial No. 3 = 1.0] [1]: 1.0

CCOC(=O)N1C2CCCC1c1cc(NN)nnc1C2.O=C(O)/C=C/C(=O)O (stereo not shown) [Serial No. 4, 3-hydrazino-5,7-propano-5,6,7,8-tetrahydro-6-pyrido[4,3-c]pyridazine carboxylic acid ethyl ester fumarate]
BP (% change), 1st day, 6 h ([1]; 2.5 mg/kg per os): -9.0%
BP (% change), 1st day, 24 h ([1]; 2.5 mg/kg per os, 24 h): -11.8%
BP (% change), 2nd day, 6 h ([1]; 2.5 mg/kg per os, 2nd day): -15.9%
BP (% change) 2nd day, 24 h ([1]; 2.5 mg/kg per os, 2nd day, 24 h): -17.1%
relation between percentage change of the blood pressure (BP) and the applied dose [1]: 1.90
BP (% change) 2nd day, 24 h ([1]; Table II, dose 9.0 μmole/kg): -17.1%
Th. E. (therapeutic effectiveness) [Serial No. 3 = 1.0] [1]: 38.9
LD50 at 336 h [2]: 400 mg/kg
Lowering of the blood pressure ([3]; day 1, a = 1.25 mg/kg oral): 25.0 mm Hg
Lowering of the blood pressure ([3]; day 1, b = 2.5 mg/kg oral): 35.0 mm Hg
Lowering of the blood pressure ([3]; day 1, c = 5.0 mg/kg oral): 48.0 mm Hg
Lowering of the blood pressure ([3]; day 1, d = 10.0 mg/kg oral): 58.0 mm Hg
Lowering of the blood pressure ([3]; day 2, a = 1.25 mg/kg oral): 14.0 mm Hg
Lowering of the blood pressure ([3]; day 2, b = 2.5 mg/kg oral): 59.0 mm Hg
Lowering of the blood pressure ([3]; day 2, c = 5.0 mg/kg oral): 67.0 mm Hg
Lowering of the blood pressure ([3]; day 2, d = 10.0 mg/kg oral): 77.5 mm Hg
Lowering of the blood pressure ([3]; day 3, a = 1.25 mg/kg oral): 20.0 mm Hg
Lowering of the blood pressure ([3]; day 3, b = 2.5 mg/kg oral): 44.0 mm Hg
Lowering of the blood pressure ([3]; day 3, c = 5.0 mg/kg oral): 53.0 mm Hg
Lowering of the blood pressure ([3]; day 3, d = 10.0 mg/kg oral): 66.0 mm Hg
Lowering of the blood pressure ([3]; day 4, a = 1.25 mg/kg oral): 21.0 mm Hg
Lowering of the blood pressure ([3]; day 4, b = 2.5 mg/kg oral): 67.0 mm Hg
Lowering of the blood pressure ([3]; day 4, c = 5.0 mg/kg oral): 72.0 mm Hg
Lowering of the blood pressure ([3]; day 4, d = 10.0 mg/kg oral): 74.0 mm Hg
Lowering of the blood pressure ([3]; day 7, a = 1.25 mg/kg oral): 27.0 mm Hg
Lowering of the blood pressure ([3]; day 7, b = 2.5 mg/kg oral): 53.0 mm Hg
Lowering of the blood pressure ([3]; day 7, c = 5.0 mg/kg oral): 59.0 mm Hg
Lowering of the blood pressure ([3]; day 7, d = 10.0 mg/kg oral): 69.0 mm Hg
Lowering of the blood pressure ([3]; day 8, a = 1.25 mg/kg oral): 21.0 mm Hg
Lowering of the blood pressure ([3]; day 8, b = 2.5 mg/kg oral): 66.0 mm Hg
Lowering of the blood pressure ([3]; day 8, c = 5.0 mg/kg oral): 67.0 mm Hg
Lowering of the blood pressure ([3]; day 8, d = 10.0 mg/kg oral): 66.0 mm Hg
Lowering of the blood pressure ([3]; day 9, b = 2.5 mg/kg oral): 64.0 mm Hg
Lowering of the blood pressure ([3]; day 9, c = 5.0 mg/kg oral): 63.0 mm Hg
Lowering of the blood pressure ([3]; day 9, d = 10.0 mg/kg oral): 61.0 mm Hg
Lowering of the blood pressure ([3]; day 10, b = 2.5 mg/kg oral): 71.0 mm Hg
Lowering of the blood pressure ([3]; day 10, c = 5.0 mg/kg oral): 66.0 mm Hg
Lowering of the blood pressure ([3]; day 10, d = 10.0 mg/kg oral): 63.0 mm Hg

CC(C)=NNc1cc2c(nn1)CC1CCCC2N1C(=O)c1ccccc1 (stereo not shown) [Serial No. 5, 6-benzoyl-3-isopropylidenehydrazino-5,7-propano-5,6,7,8-tetrahydropyrido[4,3-c]pyridazine]
BP (% change), 2nd day, 6 h [1, 4]: -15.2%
BP (% change) 2nd day, 24 h [1, 5]: -12.8%
BP (% change), 1st day, 6 h ([1]; 10 mg/kg per os): -20.1%
BP (% change), 1st day, 24 h ([1]; 10 mg/kg per os, 24 h): -4.4%
relation between percentage change of the blood pressure (BP) and the applied dose [1]: 0.87
BP (% change) 2nd day, 24 h ([1]; Table II, dose 14.3 μmole/kg): -12.8%
Th. E. (therapeutic effectiveness) [Serial No. 3 = 1.0] [1]: 17.8
LD50 at 336 h [2]: 510 mg/kg

CCOC(=O)N1C2CCC1c1cc(NN=C(C)C)nnc1C2 (stereo not shown) [Serial No. 6, 3-isopropylidenehydrazino-5,7-ethano-5,6,7,8-tetrahydro-6-pyrido[4,3-c]-pyridazine carboxylic acid ethyl ester]
BP (% change), 2nd day, 6 h [1, 4]: -21.5%
BP (% change) 2nd day, 24 h [1, 5]: -23.1%
BP (% change), 1st day, 6 h ([1]; 10 mg/kg per os): -23.1%
BP (% change), 1st day, 24 h ([1]; 10 mg/kg per os, 24 h): -20.5%
relation between percentage change of the blood pressure (BP) and the applied dose [1]: 1.40
BP (% change) 2nd day, 24 h ([1]; Table II, dose 16.5 μmole/kg): -23.1%
Th. E. (therapeutic effectiveness) [Serial No. 3 = 1.0] [1]: 28.7
LD50 at 336 h [2]: 300 mg/kg
